Results from PubChem BioAssay AID256 (DTP/NCI, 2004).
Several values for one entry are separate records, joined by “and”; a condition that tells them apart may be missing. Equal entries are not always repeated. Inconclusive results and toxic doses are left out.

Tested on: CD2F1 mice, L1210 leukemia ip, survival T/C
Test: NCI In Vivo Anticancer Drug Screen. Data for tumor model L1210 Leukemia (intraperitoneal) in CD2F1 (CDF1) mice
Conditions: endpoint: mean survival time, higher = longer survival
Method in brief: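 Read-out first: treated-group measurement over vehicle-control measurement, expressed as a ratio. Animals bore a transplanted tumor line and were dosed with compound or vehicle.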

[1] = dose: 100.0 mg/kg/injection, schedule: Q04DX003 (ip), vehicle: saline with Tween-80
[2] = dose: 200.0 mg/kg/injection, schedule: Q04DX003 (ip), vehicle: saline with Tween-80
[3] = dose: 400.0 mg/kg/injection, schedule: Q04DX003 (ip), vehicle: saline with Tween-80
[4] = dose: 25.0 mg/kg/injection, schedule: Q04DX002 (ip), vehicle: saline with Tween-80
[5] = dose: 50.0 mg/kg/injection, schedule: Q04DX002 (ip), vehicle: saline with Tween-80
[6] = dose: 100.0 mg/kg/injection, schedule: Q04DX002 (ip), vehicle: saline with Tween-80
[7] = dose: 100.0 mg/kg/injection, schedule: Q01DX001 (ip), vehicle: saline with Tween-80
[8] = dose: 200.0 mg/kg/injection, schedule: Q01DX001 (ip), vehicle: saline with Tween-80
[9] = dose: 200.0 mg/kg/injection, schedule: Q04DX002 (ip), vehicle: saline with Tween-80
[10] = dose: 400.0 mg/kg/injection, schedule: Q04DX002 (ip), vehicle: saline with Tween-80
[11] = dose: 400.0 mg/kg/injection, schedule: Q01DX001 (ip), vehicle: saline with Tween-80
[12] = dose: 100.0 mg/kg/injection, schedule: Q04DX003 (ip), vehicle: Klucel (hydroxypropylcellulose) (HPC)
[13] = dose: 200.0 mg/kg/injection, schedule: Q04DX003 (ip), vehicle: Klucel (hydroxypropylcellulose) (HPC)
[14] = dose: 400.0 mg/kg/injection, schedule: Q04DX003 (ip), vehicle: Klucel (hydroxypropylcellulose) (HPC)
[15] = dose: 100.0 mg/kg/injection, schedule: Q01DX009 (ip), vehicle: saline with Tween-80
[16] = dose: 200.0 mg/kg/injection, schedule: Q01DX009 (ip), vehicle: saline with Tween-80
[17] = dose: 400.0 mg/kg/injection, schedule: Q01DX009 (ip), vehicle: saline with Tween-80

For `CCCCCCCCC(C(=O)c1ccccc1)C(O)(C(F)(F)F)C(F)(F)F` (stereo not drawn), the T/C [1] was 102 % of control, the T/C [2] was 111 % of control and the T/C [3] was 102 % of control.
`CCN(CC)Cc1cc(Nc2cc(C)nc(/N=C(\N)Nc3cc(Cl)cc(Cl)c3)n2)ccc1O` was tested, and the T/C (dose: 12.5 mg/kg/injection, schedule: Q01DX009 (ip), vehicle: Klucel (hydroxypropylcellulose) (HPC)) was 93 % of control, the T/C (dose: 25.0 mg/kg/injection, schedule: Q01DX009 (ip), vehicle: Klucel (hydroxypropylcellulose) (HPC)) was 102 % of control and the T/C [4] was 97 % of control. For the same compound, the T/C (dose: 50.0 mg/kg/injection, schedule: Q01DX009 (ip), vehicle: Klucel (hydroxypropylcellulose) (HPC)) was 105 % of control, the T/C [5] was 94 % of control and the T/C (dose: 100.0 mg/kg/injection, schedule: Q01DX001 (ip), vehicle: Klucel (hydroxypropylcellulose) (HPC)) was 95 % of control. For the same compound, the T/C [6] was 94 % of control and the T/C (dose: 200.0 mg/kg/injection, schedule: Q01DX001 (ip), vehicle: Klucel (hydroxypropylcellulose) (HPC)) was 115 % of control.
In the case of `Nc1ccc(-c2ccc(C(=O)O)cc2)cc1`, the T/C [7] is reported as 104 % of control and 108 % of control, the T/C [6] is reported as 101 % of control and 107 % of control and the T/C [8] is reported as 93 % of control and 98 % of control. For the same compound, the T/C [9] was 95 % of control and 96 % of control and the T/C [10] was 87 % of control.
For `COc1cccc(CCN)c1`, the T/C (dose: 18.75 mg/kg/injection, schedule: Q01DX009 (ip), vehicle: saline sonified) was 98 % of control, the T/C (dose: 37.5 mg/kg/injection, schedule: Q01DX009 (ip), vehicle: saline sonified) was 97 % of control and the T/C (dose: 37.5 mg/kg/injection, schedule: Q01DX009 (ip), vehicle: saline with Tween-80) was 108 % of control. The T/C (dose: 75.0 mg/kg/injection, schedule: Q01DX009 (ip), vehicle: saline sonified) was 97 % of control and the T/C (dose: 75.0 mg/kg/injection, schedule: Q01DX009 (ip), vehicle: saline with Tween-80) was 103 % of control.
In the case of `CC(C)(C(=O)O)C(C)(C)C(=O)O`, the T/C [7] is reported as 98 % of control, the T/C [8] is reported as 98 % of control and the T/C [11] is reported as 101 % of control.
For `O=C1C(=O)c2ccccc2C(O)=C1CC1=C(O)c2ccccc2C(=O)C1=O`, the T/C [1] was 103 % of control, the T/C [2] was 101 % of control and the T/C [3] was 106 % of control.
With `O=C1CC(=O)NC(=O)C1` the T/C (dose: 12.5 mg/kg/injection, schedule: Q01DX009 (ip), vehicle: water) was 95 % of control, the T/C (dose: 25.0 mg/kg/injection, schedule: Q01DX009 (ip), vehicle: water) was 92 % of control and the T/C (dose: 50.0 mg/kg/injection, schedule: Q01DX009 (ip), vehicle: water) was 94 % of control. The T/C (dose: 100.0 mg/kg/injection, schedule: Q01DX009 (ip), vehicle: water) was 92 % of control and the T/C (dose: 200.0 mg/kg/injection, schedule: Q01DX009 (ip), vehicle: water) was 94 % of control.
In the case of `C#CCCCCCCCCCCC1(c2ccccc2)OCCO1`, the T/C [12] is reported as 94 % of control, the T/C [13] is reported as 97 % of control and the T/C [14] is reported as 95 % of control.
For `O=C(O)C(=CCc1cccc2ccccc12)C(=O)O`, the T/C [12] was 101 % of control, the T/C [13] was 100 % of control and the T/C [14] was 103 % of control.
With `O=C(NC/C=C/Br)NC1CCCc2ccccc21` (stereo not drawn) the T/C (dose: 100.0 mg/kg/injection, schedule: Q04DX003 (ip), vehicle: other) was 96 % of control, the T/C (dose: 200.0 mg/kg/injection, schedule: Q04DX003 (ip), vehicle: other) was 102 % of control and the T/C (dose: 400.0 mg/kg/injection, schedule: Q04DX003 (ip), vehicle: other) was 96 % of control.
For `CCN(CC)Cc1cc(Nc2ncnc3[nH]c(C)c(C)c23)ccc1O`, the T/C [5] was 89 % of control, the T/C [7] was 97 % of control and the T/C [8] was 100 % of control. The T/C [9] was 92 % of control.
`CCCC[PH+](CCCC)CCCC.CCCC[PH+](CCCC)CCCC.O=[N+]([O-])O.O=[N+]([O-])O.[Ni]` was tested, and the T/C [5] was 92 % of control.
`C/C=C1\OC(n2cnc3c(N)ncnc32)C(O)C1O` (stereo not drawn) was tested, and the T/C (dose: 12.5 mg/kg/injection, schedule: Q01DX005 (ip), vehicle: distilled water + Tween-80) was 101 % of control, the T/C (dose: 25.0 mg/kg/injection, schedule: Q01DX005 (ip), vehicle: distilled water + Tween-80) was 109 % of control and the T/C (dose: 50.0 mg/kg/injection, schedule: Q01DX005 (ip), vehicle: distilled water + Tween-80) was 113 % of control. The T/C (dose: 50.0 mg/kg/injection, schedule: Q01DX009 (ip), vehicle: distilled water + Tween-80) was 112 % of control, the T/C (dose: 100.0 mg/kg/injection, schedule: Q01DX005 (ip), vehicle: distilled water + Tween-80) was 119 % of control and the T/C (dose: 100.0 mg/kg/injection, schedule: Q01DX009 (ip), vehicle: distilled water + Tween-80) was 124 % of control. For the same compound, the T/C (dose: 200.0 mg/kg/injection, schedule: Q01DX009 (ip), vehicle: distilled water + Tween-80) was 157 % of control.
`O=C(CNC(=O)Nc1cccc([N+](=O)[O-])c1)N/N=C/c1cc(Br)ccc1O` was tested, and the T/C (dose: 50.0 mg/kg/injection, schedule: Q01DX009 (ip), vehicle: saline with Tween-80) was 92 % of control, the T/C [15] was 88 % of control and the T/C [16] was 88 % of control.
With `Cc1c([N+](=O)[O-])cc(Cl)n[n+]1[O-]` the T/C (dose: 3.13 mg/kg/injection, schedule: Q04DX002 (ip), vehicle: saline with Tween-80) was 101 % of control, the T/C (dose: 6.25 mg/kg/injection, schedule: Q04DX002 (ip), vehicle: saline with Tween-80) was 97 % of control and the T/C (dose: 12.5 mg/kg/injection, schedule: Q04DX002 (ip), vehicle: saline with Tween-80) was 96 % of control.
For `O=C(NCCNC(c1ccccc1)C(NCCNC(=O)c1ccccc1)c1ccccc1)c1ccccc1` (stereo not drawn), the T/C [7] was 92 % of control, the T/C [8] was 96 % of control and the T/C [11] was 92 % of control.
In the case of `CC(=O)NC(C)(NC(=O)CCl)C(=O)O` (stereo not drawn), the T/C [6] is reported as 100 % of control, the T/C [9] is reported as 96 % of control and the T/C [10] is reported as 93 % of control.
With `Cc1cc(NC(C)CN(C)C)nc(/N=C(\N)Nc2ccc(Cl)c(Cl)c2)n1` (stereo not drawn) the T/C [1] was 96 % of control.
In the case of `CC(NC=O)(C(=O)O)c1ccccc1` (stereo not drawn), the T/C (dose: 50.0 mg/kg/injection, schedule: Q01DX001 (ip), vehicle: other) is reported as 102 % of control, the T/C (dose: 100.0 mg/kg/injection, schedule: Q01DX001 (ip), vehicle: other) is reported as 97 % of control and 90 % of control and the T/C (dose: 200.0 mg/kg/injection, schedule: Q01DX001 (ip), vehicle: other) is reported as 100 % of control and 102 % of control. The T/C (dose: 400.0 mg/kg/injection, schedule: Q01DX001 (ip), vehicle: other) was 97 % of control.
In the case of `COc1c(NC(=O)Nc2ccccc2Cl)cccc1[N+](=O)[O-]`, the T/C [4] is reported as 87 % of control, the T/C [5] is reported as 90 % of control and the T/C [6] is reported as 90 % of control.
In the case of `C=CCN(C)N=Nc1ccc(NC(N)=O)cc1`, the T/C (dose: 2.34 mg/kg/injection, schedule: Q01DX009 (ip), vehicle: Klucel (hydroxypropylcellulose) (HPC)) is reported as 100 % of control and 104 % of control, the T/C (dose: 4.68 mg/kg/injection, schedule: Q01DX009 (ip), vehicle: Klucel (hydroxypropylcellulose) (HPC)) is reported as 104 % of control and 107 % of control and the T/C (dose: 9.37 mg/kg/injection, schedule: Q01DX009 (ip), vehicle: Klucel (hydroxypropylcellulose) (HPC)) is reported as 110 % of control. The T/C (dose: 18.75 mg/kg/injection, schedule: Q01DX009 (ip), vehicle: Klucel (hydroxypropylcellulose) (HPC)) was 120 % of control and the T/C (dose: 75.0 mg/kg/injection, schedule: Q01DX009 (ip), vehicle: Klucel (hydroxypropylcellulose) (HPC)) was 98 % of control.
`CN(C)c1ccc(C=C(Cl)Cl)cc1` was tested, and the T/C (dose: 100.0 mg/kg/injection, schedule: Q04DX002 (ip), vehicle: other) was 87 % of control, the T/C (dose: 200.0 mg/kg/injection, schedule: Q04DX002 (ip), vehicle: other) was 91 % of control and the T/C (dose: 400.0 mg/kg/injection, schedule: Q04DX002 (ip), vehicle: other) was 93 % of control.
For `COc1c(NS(=O)(=O)c2ccccc2)cc2c3c(cccc13)/C(=C1\Cc3cccc4c(OC)c(NS(=O)(=O)c5ccccc5)cc1c34)C2`, the T/C [1] was 95 % of control, the T/C [2] was 91 % of control and the T/C [3] was 92 % of control.
For `CC(CC(=O)O)[Se][Se]C(C)CC(=O)O` (stereo not drawn), the T/C [7] was 95 % of control and the T/C [8] was 103 % of control.
With `O/N=C1/CCCc2ccccc21` the T/C [15] was 98 % of control, the T/C [1] was 100 % of control and the T/C [16] was 101 % of control. The T/C [2] was 97 % of control, the T/C [17] was 104 % of control and the T/C [3] was 100 % of control.
For `CC(C)(C)C(=O)CC(=O)C(C)(C)C.CC(C)(C)C(=O)CC(=O)C(C)(C)C.CC(C)(C)C(=O)CC(=O)C(C)(C)C.[Fe]`, the T/C [15] was 98 % of control, the T/C [1] was 100 % of control and the T/C [16] was 97 % of control. The T/C [2] was 96 % of control, the T/C [17] was 95 % of control and the T/C [3] was 91 % of control.
